Reference: the NIST ThermoML archive (doi:10.1021/acs.jced.5b00934)
Numbers after ± are expanded uncertainties.

Conditions: Liquid, Vibrating tube method

CCC(C)O (configuration not stated) [butan-2-ol]
Conditions	mass density [kg/m3]
283.15 K, 99 kPa	814.7 ± 0.8
283.15 K, 306 kPa	814.8 ± 0.8
283.15 K, 529 kPa	815 ± 0.8
283.15 K, 909 kPa	815.3 ± 0.8
283.15 K, 1030 kPa	815.4 ± 0.8
283.15 K, 2005 kPa	816.1 ± 0.8
283.15 K, 2987 kPa	816.8 ± 0.8
283.15 K, 4975 kPa	818.2 ± 0.8
283.15 K, 6996 kPa	819.6 ± 0.8
283.15 K, 9019 kPa	821 ± 0.8
283.15 K, 10037 kPa	821.7 ± 0.8
283.15 K, 12013 kPa	823 ± 0.9
283.15 K, 14917 kPa	824.9 ± 0.9
283.15 K, 17956 kPa	826.9 ± 0.9
283.15 K, 20028 kPa	828.2 ± 0.9
283.15 K, 21997 kPa	829.4 ± 0.9
283.15 K, 24984 kPa	831.2 ± 0.9
283.15 K, 27996 kPa	833 ± 0.9
283.15 K, 29889 kPa	834.1 ± 0.9
283.15 K, 31914 kPa	835.3 ± 0.9
283.15 K, 33047 kPa	835.9 ± 0.9
283.15 K, 33065 kPa	835.9 ± 0.9
283.15 K, 34001 kPa	836.4 ± 0.9
283.15 K, 34979 kPa	836.9 ± 0.9
283.15 K, 40002 kPa	839.7 ± 0.9
283.15 K, 42074 kPa	840.9 ± 0.9
283.15 K, 44993 kPa	842.4 ± 0.9
283.15 K, 48024 kPa	844 ± 0.9
283.15 K, 50047 kPa	845.1 ± 0.9
283.15 K, 52032 kPa	846.1 ± 0.9
283.15 K, 55041 kPa	847.6 ± 0.9
283.15 K, 57909 kPa	849.1 ± 1
283.15 K, 60034 kPa	850.1 ± 1
283.15 K, 62037 kPa	851.1 ± 1
283.15 K, 65102 kPa	852.6 ± 1
283.15 K, 66079 kPa	853 ± 1
283.16 K, 37912 kPa	838.6 ± 0.9
288.15 K, 99 kPa	810.8 ± 0.8
288.15 K, 298 kPa	811 ± 0.8
288.15 K, 511 kPa	811.1 ± 0.8
288.15 K, 912 kPa	811.4 ± 0.8
288.15 K, 993 kPa	811.5 ± 0.8
288.15 K, 2048 kPa	812.3 ± 0.8
288.15 K, 3020 kPa	813 ± 0.8
288.15 K, 5097 kPa	814.5 ± 0.8
288.15 K, 10002 kPa	818 ± 0.8
288.15 K, 11924 kPa	819.3 ± 0.9
288.15 K, 15086 kPa	821.4 ± 0.9
288.15 K, 17992 kPa	823.4 ± 0.9
288.15 K, 19982 kPa	824.6 ± 0.9
288.15 K, 21991 kPa	825.9 ± 0.9
288.15 K, 25200 kPa	827.9 ± 0.9
288.15 K, 28149 kPa	829.7 ± 0.9
288.15 K, 30056 kPa	830.8 ± 0.9
288.15 K, 32010 kPa	832 ± 0.9
288.15 K, 32915 kPa	832.4 ± 0.9
288.15 K, 32978 kPa	832.5 ± 0.9
288.15 K, 33919 kPa	833 ± 0.9
288.15 K, 37967 kPa	835.3 ± 0.9
288.15 K, 40071 kPa	836.5 ± 0.9
288.15 K, 42013 kPa	837.6 ± 0.9
288.15 K, 45099 kPa	839.3 ± 0.9
288.15 K, 47977 kPa	840.8 ± 0.9
288.15 K, 51983 kPa	842.9 ± 0.9
288.15 K, 57976 kPa	846 ± 1
288.15 K, 62043 kPa	848 ± 1
288.15 K, 64998 kPa	849.5 ± 1
288.15 K, 66143 kPa	850 ± 1
288.16 K, 6990 kPa	815.8 ± 0.8
288.16 K, 9100 kPa	817.3 ± 0.8
288.16 K, 35048 kPa	833.7 ± 0.9
288.16 K, 50052 kPa	842 ± 0.9
288.16 K, 54961 kPa	844.5 ± 1
288.16 K, 59961 kPa	847 ± 1
293.15 K, 99 kPa	806.7 ± 0.8
293.15 K, 891 kPa	807.3 ± 0.8
293.15 K, 10027 kPa	814.1 ± 0.8
293.15 K, 12006 kPa	815.5 ± 0.9
293.15 K, 14925 kPa	817.5 ± 0.9
293.15 K, 22039 kPa	822.3 ± 0.9
293.15 K, 24969 kPa	824.2 ± 0.9
293.15 K, 28001 kPa	826 ± 0.9
293.15 K, 30012 kPa	827.2 ± 0.9
293.15 K, 31992 kPa	828.4 ± 0.9
293.15 K, 33079 kPa	829.1 ± 0.9
293.15 K, 34051 kPa	829.6 ± 0.9
293.15 K, 37933 kPa	831.9 ± 0.9
293.15 K, 40088 kPa	833.1 ± 0.9
293.15 K, 42062 kPa	834.2 ± 0.9
293.15 K, 45052 kPa	835.9 ± 0.9
293.15 K, 48098 kPa	837.6 ± 0.9
293.15 K, 50000 kPa	838.6 ± 0.9
293.15 K, 51999 kPa	839.7 ± 0.9
293.15 K, 55060 kPa	841.3 ± 1
293.15 K, 58191 kPa	842.9 ± 1
293.15 K, 62049 kPa	844.8 ± 1
293.15 K, 64958 kPa	846.3 ± 1
293.15 K, 66185 kPa	846.9 ± 1
293.16 K, 304 kPa	806.8 ± 0.8
293.16 K, 505 kPa	807 ± 0.8
293.16 K, 1026 kPa	807.4 ± 0.8
293.16 K, 1994 kPa	808.2 ± 0.8
293.16 K, 3011 kPa	808.9 ± 0.8
293.16 K, 4984 kPa	810.4 ± 0.8
293.16 K, 7001 kPa	811.9 ± 0.8
293.16 K, 8967 kPa	813.4 ± 0.8
293.16 K, 17912 kPa	819.5 ± 0.9
293.16 K, 20060 kPa	821 ± 0.9
293.16 K, 33109 kPa	829 ± 0.9
293.16 K, 35005 kPa	830.2 ± 0.9
293.16 K, 60071 kPa	843.8 ± 1
298.15 K, 96 kPa	802.3 ± 0.8
298.15 K, 291 kPa	802.5 ± 0.8
298.15 K, 488 kPa	802.7 ± 0.8
298.15 K, 995 kPa	803.1 ± 0.8
298.15 K, 2020 kPa	803.9 ± 0.8
298.15 K, 9025 kPa	809.3 ± 0.8
298.15 K, 10078 kPa	810 ± 0.9
298.15 K, 17949 kPa	815.6 ± 0.9
298.15 K, 19932 kPa	817 ± 0.9
298.15 K, 22061 kPa	818.4 ± 0.9
298.15 K, 24991 kPa	820.3 ± 0.9
298.15 K, 27926 kPa	822.2 ± 0.9
298.15 K, 30121 kPa	823.6 ± 0.9
298.15 K, 32061 kPa	824.8 ± 0.9
298.15 K, 33040 kPa	825.4 ± 0.9
298.15 K, 33088 kPa	825.4 ± 0.9
298.15 K, 35034 kPa	826.5 ± 0.9
298.15 K, 38020 kPa	828.3 ± 0.9
298.15 K, 49981 kPa	835.1 ± 0.9
298.15 K, 57978 kPa	839.4 ± 1
298.15 K, 60039 kPa	840.5 ± 1
298.15 K, 62048 kPa	841.5 ± 1
298.15 K, 66054 kPa	843.6 ± 1
298.16 K, 906 kPa	803 ± 0.8
298.16 K, 3037 kPa	804.7 ± 0.8
298.16 K, 5064 kPa	806.3 ± 0.8
298.16 K, 7065 kPa	807.8 ± 0.8
298.16 K, 12017 kPa	811.4 ± 0.9
298.16 K, 15244 kPa	813.7 ± 0.9
298.16 K, 34019 kPa	825.9 ± 0.9
298.16 K, 40026 kPa	829.5 ± 0.9
298.16 K, 42019 kPa	830.7 ± 0.9
298.16 K, 44993 kPa	832.3 ± 0.9
298.16 K, 47933 kPa	834 ± 0.9
298.16 K, 52047 kPa	836.3 ± 1
298.16 K, 54969 kPa	837.8 ± 1
298.16 K, 65037 kPa	843.1 ± 1
303.15 K, 98 kPa	798.2 ± 0.8
303.15 K, 290 kPa	798.3 ± 0.8
303.15 K, 914 kPa	798.8 ± 0.8
303.15 K, 1019 kPa	798.9 ± 0.8
303.15 K, 2009 kPa	799.7 ± 0.8
303.15 K, 3007 kPa	800.5 ± 0.8
303.15 K, 4968 kPa	802.1 ± 0.8
303.15 K, 8967 kPa	805.2 ± 0.8
303.15 K, 17980 kPa	811.8 ± 0.9
